Square brackets hold non-standard residues; d marks the D form. Ends that are not written are not given here. Peptide text beside a SMILES is read from it.
Key:
[1] = system: B16F10, mouse melanoma cell line; test: Tumor growth in B16F10 syngeneic mouse cancer model; type: in vivo; settings: peptide 10 mg/kg QD subcutaneous, temozolomide 50 mg/kg TIW oral gavage; for Mean (SEM) Percent Reduction in Tumor Volume vs Control: Day 11, relative to vehicle control; for Mean (SEM) Tumor Volume on Day 11: female C57Bl/6 mice, 8-10 animals per arm
Protocol: The effect of the peptides on tumor growth can be assessed by monitoring tumor volume in a syngeneic mouse cancer model, such as B16F10, mouse melanoma cell line. The study was performed by HD Biosciences/WuXi (San Diego, Calif.). B16F10 cells were expanded in culture for a maximum of five passages prior to implantation, until growing exponentially when harvested. On Day 0, B16F10 cells (0.2×10^6 cells in […] serum free media; >95% viable tumor cells) were implanted into the right hind flank of female C57Bl/6 mice. When a mean tumor volume of approximately 100 mm^3 (range 75-125 mm^3) was reached, tumor-bearing animals were randomized and treatments were initiated on the same day. Test peptides were resuspended in phosphate buffered saline (PBS) and administered once daily (QD) by subcutaneous injection at 10 mg/kg in 5.0 ml/kg vehicle. Vehicle (PBS) was administered QD by intraperitoneal injection in 5 ml/kg. Temozolomide was administered three times per week (TIW) by oral gavage at 50 mg/kg in 5.0 ml/kg vehicle. Animals were inspected daily over the course of 11 days for abnormalities. Tumor volumes were determined by calliper measurements twice per week and calculated according to the formula: V (mm^3)=W^2×L/2 (L=length and W=the perpendicular width of the tumor, L>W). Data are presented as the mean (SEM) of 8-10 animals per arm for tumor volume on Day 11 and percent decrease in tumor volume relative to vehicle control treatment. Treatment with a combination of test peptide and temozolomide produced a greater reduction in tumor volume compared to either vehicle control treatment or treatment with temozolomide alone.

human CXCR4 [2] = target: T1, human CXCR4 (Homo sapiens, UniProt P61073); test: CXCR4/CXCL12 binding, HTRF format, single concentration (Example 23); design: host or cells: HEK293 (Tag-lite CXCR4 cells, frozen aliquots, transient expression); settings: 15 nM CXCR4R fluorescent probe, 3 hours, HEK293 Tag-lite CXCR4 cells
Summary of the method: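 Tag-lite CXCR4 cells were exposed to peptide at 400 nM final with 15 nM (EC80) fluorescent CXCR4 probe for 3 h at room temperature. HTRF was read, and the 665/620 nm ratio ×10,000 measured probe bound to terbium-labelled receptor.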

Jurkat cells = test: CXCL12 mediated cell migration, Jurkat cells; type: cell-based, human; settings: 1.1 μM test article, 100 ng/ml CXCL12, 1 hour
Protocol: The assay was performed following a protocol similar to that described by Peng, et al., Mol Cancer Ther., 14480-90 (2015), incorporated herein by reference. Peptides were initially prepared as 1 mM stock in H2O and tested at a final concentration of 1.1 μM. […] Jurkat cells were resuspended in serum free media (RPMI+GlutaMax; Gibco/Thermo Fisher Scientific; Gaithersburg, Md.) containing 0.5% bovine serum albumin at density of 5×10^6 cells/ml. […] Cells (250,000 cells in 50 μl) supplemented with the appropriate treatments were seeded on to the upper chamber of a 96-well 5 μm HTS Transwell filter insert (Corning/Costar; Tewksbury, Mass.). […] Filter inserts were immediately placed on top of 96-well receiver trays and placed at 37° C. in a humidified atmosphere of 5% CO2/95% air for 1 hour. Following the 1 hour incubation period the filter inserts were carefully removed and the migration of cells across the filter into the bottom chamber (receiver wells) was determined by measuring ATP levels using Cell TiterGlo 2.0, according to manufacturer's instructions (Promega; Madison, Wis.); luminescence was measured using a Cytation 3 plate reader (BioTek; Winooski, Vt.).

human CXCR4 [3] = target: T1, human CXCR4; test: IC50 for CXCR4/CXCL12 ligand binding, HTRF format (Example 24); design: host or cells: HEK293 (Tag-lite CXCR4 cells, frozen aliquots, transient expression)
Protocol: Peptides were initially prepared as 1 mM stock in H2O. […] Following the manufacture's protocol, a frozen aliquot of Tag-lite CXCR4 cells was thawed and immediately seeded onto 384-well plates in TLB. […] The plates were covered in aluminum foil and left at room temperature for 3 hours. Following the 3 hour incubation period, the plates were removed from the incubator and fluorescence measured using a Cytation 1 plate reader using a HTRF filter cube ([…]; BioTek; Winooski, Vt.).

human CXCR4 [4] = target: T1, human CXCR4; test: IC50 for inhibition of CXCR4 activation, β-Arrestin recruitment (Example 22); type: cell-based; design: host or cells: C2C12 (mouse myoblast) CXCR4 β-Arrestin PathHunter cell line
Summary of the method: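 C2C12 cells co-expressing ProLink-tagged human CXCR4 and Enzyme Acceptor-tagged β-arrestin (PathHunter). Peptides tested in 10-point, 3-fold dilutions from 1 μM (1 μM–0.05 nM). Recruitment read by chemiluminescent enzyme-fragment complementation after 90 min incubation.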

[5] = system: CXCR4/CXCL12 induced p-MEK; test: CXCR4/CXCL12 induced p-MEK in Jurkat cells (ELISA); type: cell-based, human; settings: 5 nM CXCL12, 5 min
Summary of the method: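 Jurkat cells in RPMI+GlutaMax containing 10% FBS and 1% penicillin/streptomycin, fresh or conditioned, were resuspended at 2×10^6 cells/ml and […] aliquots placed in tubes. After a 5 min stimulation they were pelleted, rinsed with HBSS and lysed with PMSF and protease/phosphatase inhibitors. Phospho-MEK1 (Ser217/221) was quantified by sandwich ELISA with absorbance read at 450 nm.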

T1 sequence (P61073 whole entry): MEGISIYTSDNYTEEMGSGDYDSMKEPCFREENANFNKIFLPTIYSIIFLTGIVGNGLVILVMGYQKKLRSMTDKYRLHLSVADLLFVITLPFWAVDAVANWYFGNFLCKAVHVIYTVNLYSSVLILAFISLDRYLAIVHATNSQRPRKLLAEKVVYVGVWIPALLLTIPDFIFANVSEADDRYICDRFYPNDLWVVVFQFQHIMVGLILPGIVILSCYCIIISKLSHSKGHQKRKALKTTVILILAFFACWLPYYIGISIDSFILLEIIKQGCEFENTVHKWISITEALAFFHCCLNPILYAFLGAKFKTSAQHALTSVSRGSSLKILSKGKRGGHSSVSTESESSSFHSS

Molecule	Percent Inhibition of CXCR4/CXCL12 Binding (400 nM peptide) (human CXCR4 [2]) [%]	IC50 (human CXCR4 [3]) [nM]	IC50 (human CXCR4 [4]) [nM]	Mean (SEM) Percent Reduction in Tumor Volume vs Control [1] [%]	Mean (SEM) Tumor Volume on Day 11 [1] [mm^3]	Percent Inhibition of CXCL12 Mediated Migration (1.1 μM Test Article) (Jurkat cells) [%]	Percent Inhibition of CXCR4/CXCL12 Induced p-MEK (100 nM Test Article) [5] [%]	Percent Inhibition of CXCR4/CXCL12 Induced p-MEK (1 μM Test Article) [5] [%]
LERYHHS(dA)RSSLRPYT (LERYHHS[dA]RSSLRPYT) [SEQ ID NO: 5]				7.2	1770			
CC(C)C[C@H](NC(=O)[C@H](CO)NC(=O)[C@H](CO)NC(=O)[C@H](CCCNC(=N)N)NC(=O)[C@@H](NC(=O)[C@@H](NC(=O)[C@H](Cc1c[nH]cn1)NC(=O)[C@H](Cc1c[nH]cn1)NC(=O)[C@H](Cc1ccc(O)cc1)NC(=O)[C@H](CCCNC(=N)N)NC(=O)[C@H](CCC(=O)O)NC(=O)[C@@H](N)CC(C)C)[C@@H](C)O)C(C)C)C(=O)N[C@@H](CCCNC(=N)N)C(=O)N1CCC[C@H]1C(=O)N[C@@H](Cc1ccc(O)cc1)C(=O)N[C@H](C(=O)N[C@@H](CCCCN)C(=O)O)[C@@H](C)O [compound 39] (H-LERYHHTVRSSLRPYTK-OH; N-terminus and C-terminus assumed)	87	8	3			77	38	95
CC(C)C[C@H](NC(=O)[C@H](CO)NC(=O)[C@H](CO)NC(=O)[C@H](CCCNC(=N)N)NC(=O)[C@@H](NC(=O)[C@H](CO)NC(=O)[C@H](Cc1c[nH]cn1)NC(=O)[C@H](Cc1c[nH]cn1)NC(=O)[C@H](Cc1ccc(O)cc1)NC(=O)[C@H](CCCNC(=N)N)NC(=O)[C@H](CCC(=O)O)NC(=O)[C@@H](N)CC(C)C)C(C)C)C(=O)N[C@@H](CCCNC(=N)N)C(=O)N1CCC[C@H]1C(=O)N[C@@H](Cc1ccc(O)cc1)C(=O)N[C@H](C(=O)N[C@@H](CCCCN)C(N)=O)[C@@H](C)O [compound 56] (H-LERYHHSVRSSLRPYTK-NH2; N-terminus assumed)	79	5	11			83	69	98
CC(C)C[C@H](NC(=O)[C@H](CO)NC(=O)[C@H](CO)NC(=O)[C@H](CCCNC(=N)N)NC(=O)[C@@H](NC(=O)[C@H](CO)NC(=O)[C@H](Cc1c[nH]cn1)NC(=O)[C@H](Cc1c[nH]cn1)NC(=O)[C@H](Cc1ccccc1)NC(=O)[C@H](CCCNC(=N)N)NC(=O)[C@H](CCC(=O)O)NC(=O)[C@@H](N)CC(C)C)C(C)C)C(=O)N[C@@H](CCCNC(=N)N)C(=O)N1CCC[C@H]1C(=O)N[C@@H](Cc1ccc(O)cc1)C(=O)N[C@H](C(=O)N[C@@H](CCCCN)C(=O)O)[C@@H](C)O [compound 54] (H-LERFHHSVRSSLRPYTK-OH; N-terminus and C-terminus assumed)	79	8	3			54	46	92
Cn1nnc2c(C(N)=O)ncn2c1=O [Temozolomide, reference compound]				37.9	1190			
LERYHHSVRSSLRPYTK (LERYHHSVRSSLRPYTK-NH2) [SEQ ID NO: 4]				14.9	1620			

Further lines, with some results ahead:

Percent Inhibition of CXCR4/CXCL12 Binding (400 nM peptide) (human CXCR4 [2]) [%]	IC50 (human CXCR4 [3]) [nM]	IC50 (human CXCR4 [4]) [nM]	Molecule	Mean (SEM) Percent Reduction in Tumor Volume vs Control [1] [%]	Mean (SEM) Tumor Volume on Day 11 [1] [mm^3]	Percent Inhibition of CXCL12 Mediated Migration (1.1 μM Test Article) (Jurkat cells) [%]	Percent Inhibition of CXCR4/CXCL12 Induced p-MEK (100 nM Test Article) [5] [%]	Percent Inhibition of CXCR4/CXCL12 Induced p-MEK (1 μM Test Article) [5] [%]
77	7	33	CC(C)C[C@H](NC(=O)[C@H](CO)NC(=O)[C@H](CO)NC(=O)[C@H](CCCNC(=N)N)NC(=O)[C@@H](C)NC(=O)[C@H](CO)NC(=O)[C@H](Cc1c[nH]cn1)NC(=O)[C@H](Cc1c[nH]cn1)NC(=O)[C@H](Cc1ccc(O)cc1)NC(=O)[C@H](CCCNC(=N)N)NC(=O)[C@H](CCC(=O)O)NC(=O)[C@@H](N)CC(C)C)C(=O)N[C@@H](CCCNC(=N)N)C(=O)N1CCC[C@H]1C(=O)N[C@@H](Cc1ccc(O)cc1)C(=O)N[C@H](C(=O)N[C@@H](CCCCN)C(N)=O)[C@@H](C)O [compound 57] (H-LERYHHS[dA]RSSLRPYTK-NH2; N-terminus assumed)			30	10	72
88	6	5	CC(C)C[C@H](NC(=O)[C@@H](NC(=O)[C@H](CO)NC(=O)[C@H](CCCNC(=N)N)NC(=O)[C@@H](NC(=O)[C@H](CO)NC(=O)[C@H](Cc1c[nH]cn1)NC(=O)[C@H](Cc1c[nH]cn1)NC(=O)[C@H](Cc1ccc(O)cc1)NC(=O)[C@H](CCCNC(=N)N)NC(=O)[C@H](CCC(=O)O)NC(=O)[C@@H](N)CC(C)C)C(C)C)[C@@H](C)O)C(=O)N[C@@H](CCCNC(=N)N)C(=O)N1CCC[C@H]1C(=O)N[C@@H](Cc1ccc(O)cc1)C(=O)N[C@H](C(=O)N[C@@H](CCCCN)C(=O)O)[C@@H](C)O [compound 74] (H-LERYHHSVRSTLRPYTK-OH; N-terminus and C-terminus assumed)			61	48	93
60	17	4	CC(C)C[C@H](NC(=O)[C@H](CO)NC(=O)[C@H](CO)NC(=O)[C@H](CCCNC(=N)N)NC(=O)[C@@H](NC(=O)[C@H](CO)NC(=O)[C@H](Cc1c[nH]cn1)NC(=O)[C@H](Cc1c[nH]cn1)NC(=O)[C@H](Cc1ccc(O)cc1)NC(=O)[C@H](CCCNC(=N)N)NC(=O)[C@H](CCC(=O)O)NC(=O)[C@@H](N)CC(C)C)C(C)C)C(=O)N[C@@H](CCCNC(=N)N)C(=O)N1CCC[C@H]1C(=O)N[C@@H](Cc1ccccc1)C(=O)N[C@H](C(=O)N[C@@H](CCCCN)C(=O)O)[C@@H](C)O [compound 60] (H-LERYHHSVRSSLRPFTK-OH; N-terminus and C-terminus assumed)			33	34	82
